This note sets out measurements from publication PMC8231556, “Inhibiting Endothelial Cell Function in Normal and Tumor Angiogenesis Using BMP Type I Receptor Macrocyclic Kinase Inhibitors” (Cancers, 2021).

Assay in all cases: radiometric kinase profiling (33 PanQinase)
What all share (type): biochemical

In one assay the target is T1, ACVR1 (Homo sapiens, UniProt Q04771).
T1 construct: purchased Proqinase, Germany
T1 sequence (Q04771 21-509): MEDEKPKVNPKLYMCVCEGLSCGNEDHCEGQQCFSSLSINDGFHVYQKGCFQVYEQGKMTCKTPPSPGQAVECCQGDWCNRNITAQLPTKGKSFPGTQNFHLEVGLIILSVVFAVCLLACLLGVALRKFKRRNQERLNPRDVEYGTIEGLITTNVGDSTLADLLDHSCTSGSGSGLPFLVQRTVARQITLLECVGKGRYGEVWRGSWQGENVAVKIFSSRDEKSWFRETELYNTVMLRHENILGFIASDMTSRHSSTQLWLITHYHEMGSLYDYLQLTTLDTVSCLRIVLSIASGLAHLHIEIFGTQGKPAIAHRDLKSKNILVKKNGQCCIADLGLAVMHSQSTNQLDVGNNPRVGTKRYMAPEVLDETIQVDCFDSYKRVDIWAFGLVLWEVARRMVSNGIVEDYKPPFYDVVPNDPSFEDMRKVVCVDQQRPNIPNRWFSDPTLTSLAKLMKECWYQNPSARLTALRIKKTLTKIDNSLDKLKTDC
The settings on record: read-out: Inhibitory effect (%) ACVR1. The essentials:
(§1)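 Enzyme/substrate mixes were incubated with [γ-33P]-ATP and compound (added as a 0.1 μM solution in 10% DMSO) at 30 °C for 60 min, then stopped with H3PO4 and washed with NaCl. 33P incorporation was scintillation-counted, and residual activity (%) was normalized to untreated control and background.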

The next assay deals with T2, MAP3K5 (Homo sapiens, UniProt Q99683).
T2 construct: purchased ProQinase (33PanQinase Activity Assay)
T2 sequence (Q99683 1-1374): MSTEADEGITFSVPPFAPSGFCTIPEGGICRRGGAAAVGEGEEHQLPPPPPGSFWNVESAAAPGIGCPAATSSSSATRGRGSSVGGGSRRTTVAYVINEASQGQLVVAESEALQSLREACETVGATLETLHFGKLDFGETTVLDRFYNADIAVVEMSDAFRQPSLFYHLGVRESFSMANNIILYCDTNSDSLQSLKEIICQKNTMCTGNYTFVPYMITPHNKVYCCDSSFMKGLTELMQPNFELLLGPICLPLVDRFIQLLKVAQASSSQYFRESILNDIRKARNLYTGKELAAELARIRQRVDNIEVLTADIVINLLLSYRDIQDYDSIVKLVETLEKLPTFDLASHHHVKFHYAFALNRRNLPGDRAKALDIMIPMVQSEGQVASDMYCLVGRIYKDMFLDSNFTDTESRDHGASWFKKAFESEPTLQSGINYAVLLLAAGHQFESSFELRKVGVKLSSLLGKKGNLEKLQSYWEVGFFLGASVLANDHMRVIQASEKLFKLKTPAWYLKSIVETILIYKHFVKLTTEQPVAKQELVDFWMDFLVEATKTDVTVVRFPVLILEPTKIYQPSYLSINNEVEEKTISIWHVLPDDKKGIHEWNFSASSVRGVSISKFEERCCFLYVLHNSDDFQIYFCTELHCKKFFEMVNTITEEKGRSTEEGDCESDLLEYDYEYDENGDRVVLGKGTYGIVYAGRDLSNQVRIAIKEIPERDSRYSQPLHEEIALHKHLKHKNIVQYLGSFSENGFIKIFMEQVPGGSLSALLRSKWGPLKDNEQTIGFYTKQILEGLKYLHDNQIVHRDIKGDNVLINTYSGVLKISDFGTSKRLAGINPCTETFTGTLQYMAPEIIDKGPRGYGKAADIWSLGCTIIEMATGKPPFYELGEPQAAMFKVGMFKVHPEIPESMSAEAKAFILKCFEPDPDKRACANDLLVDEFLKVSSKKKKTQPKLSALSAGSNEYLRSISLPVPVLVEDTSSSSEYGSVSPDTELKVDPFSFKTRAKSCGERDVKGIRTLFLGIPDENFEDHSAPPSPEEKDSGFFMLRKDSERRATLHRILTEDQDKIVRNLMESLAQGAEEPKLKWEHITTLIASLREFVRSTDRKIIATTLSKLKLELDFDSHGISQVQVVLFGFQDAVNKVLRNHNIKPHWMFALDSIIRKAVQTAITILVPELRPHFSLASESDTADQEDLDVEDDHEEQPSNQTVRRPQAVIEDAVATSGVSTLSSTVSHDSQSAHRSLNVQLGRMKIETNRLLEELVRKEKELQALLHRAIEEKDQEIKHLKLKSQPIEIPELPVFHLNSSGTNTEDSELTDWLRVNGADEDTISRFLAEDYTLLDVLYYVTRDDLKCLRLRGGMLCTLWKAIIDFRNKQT
The following applies: read-out: Inhibitory effect (%) MAP3K5. Put shortly: as §1

For a further assay, the target named is T3, EPHA2 (Homo sapiens, UniProt P29317).
T3 construct: purchased Proqinase, Germany
T3 sequence (P29317 24-976): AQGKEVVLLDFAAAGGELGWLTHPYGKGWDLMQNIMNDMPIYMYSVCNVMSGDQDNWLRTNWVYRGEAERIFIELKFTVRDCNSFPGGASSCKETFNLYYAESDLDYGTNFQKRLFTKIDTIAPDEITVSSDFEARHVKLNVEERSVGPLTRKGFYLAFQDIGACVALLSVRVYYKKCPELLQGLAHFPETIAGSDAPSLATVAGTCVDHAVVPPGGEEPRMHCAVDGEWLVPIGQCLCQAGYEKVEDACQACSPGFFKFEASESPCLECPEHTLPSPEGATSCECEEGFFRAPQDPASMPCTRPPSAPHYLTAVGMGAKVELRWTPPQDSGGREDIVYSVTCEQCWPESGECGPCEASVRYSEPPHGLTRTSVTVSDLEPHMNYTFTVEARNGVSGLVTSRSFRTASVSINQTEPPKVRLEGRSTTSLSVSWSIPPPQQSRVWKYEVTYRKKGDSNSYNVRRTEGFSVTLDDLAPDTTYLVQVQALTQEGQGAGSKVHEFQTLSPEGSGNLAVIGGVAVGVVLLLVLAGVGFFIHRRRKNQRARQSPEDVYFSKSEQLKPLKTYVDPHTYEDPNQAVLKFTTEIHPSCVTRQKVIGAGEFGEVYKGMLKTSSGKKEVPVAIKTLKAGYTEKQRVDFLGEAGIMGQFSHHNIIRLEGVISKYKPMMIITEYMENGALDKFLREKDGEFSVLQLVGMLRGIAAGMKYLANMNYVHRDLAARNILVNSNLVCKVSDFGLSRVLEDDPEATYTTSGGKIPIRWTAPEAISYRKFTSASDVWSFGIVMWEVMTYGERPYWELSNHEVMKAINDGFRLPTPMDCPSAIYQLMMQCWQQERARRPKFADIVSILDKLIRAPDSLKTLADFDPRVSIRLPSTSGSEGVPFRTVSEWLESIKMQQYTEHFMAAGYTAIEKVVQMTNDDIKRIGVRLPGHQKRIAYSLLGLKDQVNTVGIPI
The following applies: read-out: Inhibitory effect (%) EPHA2. Put shortly: as §1

The structures appear in SMILES notation.

Regarding `c1ccc2c(-c3cnn4cc(-c5ccc(N6CCNCC6)cc5)cnc34)ccnc2c1` [LDN-193189, reference compound], the figures for the inhibition at 0.1 µM at ACVR1, on MAP3K5 and at EPHA2 were 67.7%, 6.9% and -17.2%, respectively.
With `CN1CCc2cccc(c2)Nc2nccc(n2)N2CCCc3cc(ccc32)C1` [OD16], the values for the inhibition at 0.1 µM at ACVR1, at MAP3K5 and on EPHA2 were 90.2%, -11.3% and -21.9%, respectively.
The like results for `CN1CCC(=O)NCCNc2ccn3ncc(c3n2)-c2cccc(c2)C1` [OD29] were, in that order, 92.5%, 0.68% and 10.4%.
